From ChEMBL document CHEMBL3871284, “Structure-activity relationship-based screening of antibiotics against Gram-negative Acinetobacter baumannii” (Bioorg Med Chem, 2017)
Converted amounts (≈) assume the structure as drawn. The source made the active and inactive calls. The calls are words filed in the database; no cut-off is given here.

Key:
[1] = system: Staphylococcus aureus; assay: Antimicrobial activity against Staphylococcus aureus after 16 hrs by broth microdilution assay; assay type: functional
[2] = system: Pseudomonas aeruginosa; assay: Antimicrobial activity against Pseudomonas aeruginosa KCTC 1637 after 16 hrs by broth microdilution assay; assay type: functional; settings: KCTC 1637, 16 h
[3] = system: Pseudomonas aeruginosa; assay: Antimicrobial activity against multidrug resistant Pseudomonas aeruginosa CCARM 2002 after 16 hrs by broth microdilution assay; assay type: functional; settings: CCARM 2002, 16 h
[4] = system: Pseudomonas aeruginosa; assay: Antimicrobial activity against multidrug resistant Pseudomonas aeruginosa CCARM 2095 after 16 hrs by broth microdilution assay; assay type: functional; settings: CCARM 2095, 16 h
[5] = system: Staphylococcus aureus; assay: Antimicrobial activity against Methicillin-resistant Staphylococcus aureus isolate 3114 after 16 hrs by broth microdilution assay; assay type: functional; settings: isolate 3114, 16 h
[6] = system: Staphylococcus epidermidis; assay: Antimicrobial activity against Staphylococcus epidermidis after 16 hrs by broth microdilution assay; assay type: functional
[7] = system: Acinetobacter baumannii; assay: Antimicrobial activity against multidrug resistant Acinetobacter baumannii CCARM 12036 after 16 hrs by broth microdilution assay; assay type: functional; settings: CCARM 12036, 16 h
[8] = system: Bacillus subtilis; assay: Antimicrobial activity against Bacillus subtilis after 16 hrs by broth microdilution assay; assay type: functional
[9] = system: Acinetobacter baumannii; assay: Antimicrobial activity against multidrug resistant Acinetobacter baumannii CCARM 12035 after 16 hrs by broth microdilution assay; assay type: functional; settings: CCARM 12035, 16 h
[10] = system: Escherichia coli; assay: Antimicrobial activity against Escherichia coli KCTC 1682 after 16 hrs by broth microdilution assay; assay type: functional; settings: KCTC 1682, 16 h
[11] = Binding affinity to Acinetobacter baumannii His-tagged KAS3 expressed in Escherichia coli BL21(DE3) by tryptophan emission assay
[12] = system: Acinetobacter baumannii; assay: Antimicrobial activity against multidrug resistant Acinetobacter baumannii CCARM 12005 after 16 hrs by broth microdilution assay; assay type: functional; settings: CCARM 12005, 16 h
[13] = system: Escherichia coli; assay: Antimicrobial activity against multidrug resistant Escherichia coli CCARM 1238 after 16 hrs by broth microdilution assay; assay type: functional; settings: CCARM 1238, 16 h
[14] = system: Escherichia coli; assay: Antimicrobial activity against multidrug resistant Escherichia coli CCARM 1229 after 16 hrs by broth microdilution assay; assay type: functional; settings: CCARM 1229, 16 h
[15] = system: Acinetobacter baumannii; assay: Antimicrobial activity against Acinetobacter baumannii KCTC 2508 after 16 hrs by broth microdilution assay; assay type: functional; settings: KCTC 2508, 16 h
[16] = system: Acinetobacter baumannii; assay: Antimicrobial activity against multidrug resistant Acinetobacter baumannii CCARM 12037 after 16 hrs by broth microdilution assay; assay type: functional; settings: CCARM 12037, 16 h
[17] = system: Staphylococcus aureus; assay: Antimicrobial activity against Methicillin-resistant Staphylococcus aureus 3126 after 16 hrs by broth microdilution assay; assay type: functional; settings: Staphylococcus aureus, 3126, 16 h
[18] = system: Pseudomonas aeruginosa; assay: Antimicrobial activity against multidrug resistant Pseudomonas aeruginosa CCARM 2163 after 16 hrs by broth microdilution assay; assay type: functional; settings: CCARM 2163, 16 h
[19] = Antiinflammatory activity in mouse RAW264.7 cells assessed as inhibition of LPS-stimulated IL6 mRNA expression at 10 uM after 3 hrs in presence of LPS by RT-PCR analysis; assay type: functional; settings: RAW264.7, 3 h
[20] = Binding affinity to Acinetobacter baumannii His-tagged KAS3 expressed in Escherichia coli BL21(DE3) by isothermal titration calorimetry assay
[21] = Antiinflammatory activity in mouse RAW264.7 cells assessed as inhibition of LPS-stimulated iNOS mRNA expression at 10 uM after 3 hrs in presence of LPS by RT-PCR analysis; assay type: functional; settings: RAW264.7, 3 h
[22] = system: RAW264.7; assay: Antiinflammatory activity in mouse RAW264.7 cells assessed as inhibition of LPS-stimulated NO production at 10 to 20 uM after 24 hrs in presence of LPS; assay type: functional, cell-based
[23] = Antiinflammatory activity in mouse RAW264.7 cells assessed as inhibition of LPS-stimulated MIP1 mRNA expression at 10 uM after 3 hrs in presence of LPS by RT-PCR analysis; assay type: functional; settings: RAW264.7, 3 h
[24] = Antiinflammatory activity in mouse RAW264.7 cells assessed as inhibition of LPS-stimulated IL1beta mRNA expression at 10 uM after 3 hrs in presence of LPS by RT-PCR analysis; assay type: functional; settings: RAW264.7, 3 h
[25] = Antiinflammatory activity in mouse RAW264.7 cells assessed as inhibition of LPS-stimulated TNFalpha mRNA expression at 10 uM after 3 hrs in presence of LPS by RT-PCR analysis; assay type: functional; settings: RAW264.7, 3 h
[26] = Antiinflammatory activity in mouse RAW264.7 cells assessed as inhibition of LPS-stimulated MIP2 mRNA expression at 10 uM after 3 hrs in presence of LPS by RT-PCR analysis; assay type: functional; settings: RAW264.7, 3 h

Structure (SMILES)	MIC [1] [µg/mL]	MIC [2] [µg/mL]	MIC [3] [µg/mL]	MIC [4] [µg/mL]	MIC [5] [µg/mL]	MIC [6] [µg/mL]	MIC [7] [µg/mL]	MIC [8] [µg/mL]	MIC [9] [µg/mL]	MIC [10] [µg/mL]	Kd [11] [µM]	MIC [12] [µg/mL]	MIC [13] [µg/mL]	MIC [14] [µg/mL]	MIC [15] [µg/mL]	MIC [16] [µg/mL]	MIC [17] [µg/mL]	MIC [18] [µg/mL]	also measured
COc1ccc(/C=N/NCc2ccc(C(F)(F)F)cc2)c(O)c1	> 32	> 32	> 32	> 32	> 32	> 32	> 32	> 32	> 32	> 32	22	> 32	> 32	> 32	> 32	> 32	> 32	> 32	–
CCCOc1ccc(/C=N/NCc2ccc3ccccc3c2)c(O)c1	> 32	> 32	> 32	> 32	> 32	> 32	> 32	> 32	> 32	> 32	21.7	> 32	> 32	> 32	> 32	> 32	> 32	> 32	–
COc1ccc(/C=N/NCc2ccc(C(=O)O)cc2)c(OC)c1	> 32	> 32	> 32	> 32	> 32	> 32	> 32	> 32	> 32	> 32	72.5	> 32	> 32	> 32	> 32	> 32	> 32	> 32	–
Oc1cccc(Br)c1/C=N/NCc1cccc(C(F)(F)F)c1	> 32	> 32	> 32	> 32	> 32	> 32	> 32	> 32	> 32	> 32	> 100	> 32	> 32	> 32	> 32	> 32	> 32	> 32	–
Oc1ccc(/C=N/NCc2cccc(C(F)(F)F)c2)cc1	32 (≈ 109 µM)	32 (≈ 109 µM)	> 32	> 32	> 32	32 (≈ 109 µM)	16 (≈ 54.4 µM)	32 (≈ 109 µM)	16 (≈ 54.4 µM)	32 (≈ 109 µM)	0.22	16 (≈ 54.4 µM)	> 32	> 32	8 (≈ 27.2 µM)	16 (≈ 54.4 µM)	> 32	> 32	inhibition at 10 µM [19]: 50.6%; Kd [20]: 0.127 µM; inhibition at 10 µM [21]: > 70%; inhibition [22]: Active; inhibition at 10 µM [23]: > 70%; inhibition at 10 µM [24]: 63.5%; inhibition at 10 µM [25]: > 70%; inhibition at 10 µM [26]: > 70%
COc1ccc(/C=N/NCc2ccc(C)cc2)c(O)c1	> 32	> 32	> 32	> 32	> 32	> 32	> 32	> 32	> 32	> 32	> 100	> 32	> 32	> 32	> 32	> 32	> 32	> 32	–
CCCOc1ccc(/C=N/NCc2ccc(C(F)(F)F)cc2)c(O)c1	> 32	> 32	> 32	> 32	> 32	> 32	> 32	> 32	> 32	> 32	28.8	> 32	> 32	> 32	> 32	> 32	> 32	> 32	–
COc1ccccc1/C=N/NCc1ccc(C(=O)O)cc1	> 32	> 32	> 32	> 32	> 32	> 32	> 32	> 32	> 32	> 32	20.2	> 32	> 32	> 32	> 32	> 32	> 32	> 32	–
Cc1ccc(/C=N/NCc2ccc(O)cc2O)cc1Cl	8 (≈ 27.5 µM)	4 (≈ 13.8 µM)	> 32	32 (≈ 110 µM)	32 (≈ 110 µM)	8 (≈ 27.5 µM)	2 (≈ 6.88 µM)	16 (≈ 55 µM)	2 (≈ 6.88 µM)	32 (≈ 110 µM)	0.916	4 (≈ 13.8 µM)	> 32	> 32	2 (≈ 6.88 µM)	2 (≈ 6.88 µM)	> 32	32 (≈ 110 µM)	inhibition at 10 µM [19]: 50.6%; Kd [20]: 0.197 µM; inhibition at 10 µM [21]: > 70%; inhibition [22]: Active; inhibition at 10 µM [23]: > 70%; inhibition at 10 µM [24]: 10.3%; inhibition at 10 µM [25]: > 70%; inhibition at 10 µM [26]: > 70%
CCOc1ccc(/C=N/NCc2ccc(Cl)c(Cl)c2)c(O)c1	> 32	> 32	> 32	> 32	> 32	> 32	> 32	> 32	> 32	> 32	> 100	> 32	> 32	> 32	> 32	> 32	> 32	> 32	–
Oc1ccc(/C=N/NCc2ccc(C(F)(F)F)cc2)c(O)c1	2 (≈ 6.45 µM)	> 32	> 32	> 32	4 (≈ 12.9 µM)	16 (≈ 51.6 µM)	16 (≈ 51.6 µM)	4 (≈ 12.9 µM)	16 (≈ 51.6 µM)	> 32	0.596	8 (≈ 25.8 µM)	> 32	> 32	16 (≈ 51.6 µM)	16 (≈ 51.6 µM)	8 (≈ 25.8 µM)	> 32	–
COc1ccc(O)c(/C=N/NCc2cccc(C(F)(F)F)c2)c1	> 32	> 32	> 32	> 32	> 32	> 32	> 32	> 32	> 32	> 32	> 100	> 32	> 32	> 32	> 32	> 32	> 32	> 32	–
